In patent US20240351988A1, “ARYL HYDROCARBON RECEPTOR MODULATORS AND THEIR USE IN THE TREATMENT OF DISEASES AND DISORDERS” (Allianthera (Suzhou) Biopharmaceutical Co., Ltd., priority 2021, published 2024):

Key:
[1] = tested on: AHR-regulated gene CYP1A1 in human monocytic U937 cell line; test: AHR-regulated CYP1A1 expression in U937 cells (qPCR, kynurenic acid stimulated); format: cell-based; settings: U-937, 200 μM KA, 16 hours, CYP1A1 vs GAPDH, read-out: Cyp ANATAG mode assay: IC50
Procedure: To evaluate the AHR inhibitory activity of the test compounds, quantitative PCR analysis was used to determine expression level of the AHR-regulated gene CYP1A1 in a human monocytic U937 cell line upon stimulation of 200 μM kynurenic acid (KA) in the absence or presence of AHR inhibitor. U937 cells were seeded at a concentration of 5×10^5 cells/well in 200 μL of growth medium in 96-well cell culture microplates. CYP1A1 expression was induced with 200 μM KA (positive control) in the absence or presence of the test compounds for 16 hours. Human U937 cells were typically incubated with eight different concentrations of test compounds (typical dilution: […], 3.2 nM, 16 nM, 80 nM, 400 nM, 2 μM, 10 μM) and analyzed in duplicate on the same cell culture microplate. After stimulation, the media was removed, the cell RNA was isolated using RNeasy Mini Kit (Qiagen, 74104) and reverse-transcribed to cDNA using PrimeScript RT reagent Kit (Perfect Real Time) (TaKaRa, RR037A). Unstimulated cells were used as the negative control. Taqman probes for human CYP1A1 (Hs01054797_g1) and human GAPDH (Hs02786624_g1) were used to analyze fold expression of CYP1A1 of GAPDH.

[2] = molecular target: T1, Human Aryl Hydrocarbon Receptor (AhR) (Homo sapiens, UniProt P35869); test: AHR antagonist reporter assay in human cell line (INDIGO AhR Reporter Assay System, kynurenic acid activated); format: cell-based; settings: 200 μM kynurenic acid, 24 hours, luciferase; read-out: AhR Reporter Assay KA Antagonist Mode: IC50
T1 construct: purchased INDIGO Bioscience #1B06001-32; host or cells: AhR Reporter Cell (kit's proprietary reporter cells)
T1 sequence (P35869 11-848): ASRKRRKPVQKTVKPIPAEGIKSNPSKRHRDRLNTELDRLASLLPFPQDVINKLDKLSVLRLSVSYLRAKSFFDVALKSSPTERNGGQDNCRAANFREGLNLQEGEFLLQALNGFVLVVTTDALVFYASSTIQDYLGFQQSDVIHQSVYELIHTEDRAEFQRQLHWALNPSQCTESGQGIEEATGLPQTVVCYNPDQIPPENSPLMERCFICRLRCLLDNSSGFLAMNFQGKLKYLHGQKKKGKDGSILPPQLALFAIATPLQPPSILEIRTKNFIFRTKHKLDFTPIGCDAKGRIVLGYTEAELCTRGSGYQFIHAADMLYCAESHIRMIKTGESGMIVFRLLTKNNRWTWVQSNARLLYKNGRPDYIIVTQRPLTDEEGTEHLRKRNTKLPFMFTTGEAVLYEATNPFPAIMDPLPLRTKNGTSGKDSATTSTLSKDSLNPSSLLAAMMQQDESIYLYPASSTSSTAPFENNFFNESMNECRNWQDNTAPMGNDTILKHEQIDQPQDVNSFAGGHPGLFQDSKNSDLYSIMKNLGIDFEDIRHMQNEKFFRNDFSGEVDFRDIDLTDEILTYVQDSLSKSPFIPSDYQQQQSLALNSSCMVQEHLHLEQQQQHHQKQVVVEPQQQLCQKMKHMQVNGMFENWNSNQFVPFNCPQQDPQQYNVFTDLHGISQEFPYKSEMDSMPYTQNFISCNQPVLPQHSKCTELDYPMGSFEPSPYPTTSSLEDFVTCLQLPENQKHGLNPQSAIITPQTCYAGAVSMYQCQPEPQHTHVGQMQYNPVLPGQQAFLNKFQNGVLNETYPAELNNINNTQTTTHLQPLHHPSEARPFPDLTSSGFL
In short: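 AhR reporter cells activated with 200 μM kynurenic acid and exposed to compound dilution series in duplicate for 24 h. Firefly luciferase readout, normalized to positive (literature antagonists or unactivated cells) and negative controls.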

[3] = tested on: CT26 tumor cells; test: Anti-tumor activity in mice bearing CT26 tumors; format: in vivo, BALB/C mouse; settings: CT26, female BALB/C; compound 10 mg/kg orally 16 days; anti PD-1 10 mg/kg i.p. twice every week; FIG. 1
Procedure: Female BALB/C mouse was inoculated subcutaneously on the right flank with CT26 tumor cells (3×10^5) in 0.1 ml of RPMI 1640 Medium without serum for tumor development. Mice were randomized into 4 groups according to body weight on Day 4 after inoculation. The tumor-bearing mice were treated with Vehicle, anti PD-1 antibody (RMP1-14, BioXCell Catalog No. BP0146), a AHR antagonist compound as disclosed herein and a combination therapy of a AHR antagonist compound as disclosed herein and the anti PD-1 (or established treatment). The AHR antagonist compound was dosed orally at for example 10 mg/kg alone or in combination with established treatment for 16 days. When the established treatment was PD-1 antibody, the antibody was administered via intraperitoneal injection at 10 mg/kg, twice every week.

| SMILES | IC50 [1] [nM] | IC50 [2] [nM] | tumor volume compared with Vehicle group [3] |
| --- | --- | --- | --- |
| CNC(=O)[C@H](C)NC(=O)c1cc(-c2ccc(OC(F)(F)F)cc2)nn(-c2cnn(C)c2)c1=O [Compound 170] | < 100 | < 100 | – |
| CNC(=O)[C@H](C)NC(=O)c1cc(-c2ccc(-c3ccc(Cl)cc3)cc2)nn(-c2cnn(C)c2)c1=O [Compound 171] | < 100 | < 100 | – |
| CN1CCCC[C@H](NC(=O)c2cc(-c3ccc(C(F)(F)F)nc3)nn(-c3cnn(C)c3)c2=O)C1=O [Compound 172] | < 100 | < 100 | – |
| CNC(=O)C(C)(C)NC(=O)c1cc(-c2ccc(C(F)(F)F)cc2)nn(-c2cnn(C)c2)c1=O [Compound 173] | < 100 | < 100 | – |
| Cc1nn(C)c2cc(-c3cc(C(=O)N[C@@H](C)CO)c(=O)n(-c4cnn(C)c4)n3)ccc12 [Compound 175] | 100 to 400 | < 100 | – |
| Cc1nn(C)c2cc(-c3cc(C(=O)N[C@@H](C)C(=O)N(C)C)c(=O)n(-c4cnn(C)c4)n3)ccc12 [Compound 176] | 100 to 400 | < 100 | – |
| C[C@H](NC(=O)c1cc(-c2ccc(-c3ccc(Cl)cc3)nc2)nn(-c2cnn(C)c2)c1=O)C(=O)N(C)C [Compound 177] | < 100 | < 100 | – |
| CNC(=O)[C@H](C)NC(=O)c1cc(-c2cnc(-c3ccc(Cl)cc3)nc2)nn(-c2cnn(C)c2)c1=O [Compound 181] | 100 to 400 | < 100 | – |
| CNC(=O)[C@H](C)NC(=O)c1cc(-c2ccc(-c3ccc(Cl)cc3)nc2)nn(-c2cnn(C)c2)c1=O [Compound 183] | < 100 | < 100 | – |
| C[C@@H](CO)NC(=O)c1cc(-c2ccc(-c3ccccc3)nc2)nn(-c2cnn(C)c2)c1=O [Compound 185] | < 100 | < 100 | – |
| C[C@@H](CO)NC(=O)c1cc(-c2cnc(-c3ccc(F)cc3)nc2)nn(-c2cnn(C)c2)c1=O [Compound 186] | < 100 | < 100 | – |
| C[C@@H](CO)NC(=O)c1cc(-c2ccc(-c3cccc(F)c3)nc2)nn(-c2cnn(C)c2)c1=O [Compound 191] | < 100 | < 100 | – |
| C[C@@H](CO)NC(=O)c1cc(-c2ccc(-c3ccccc3F)nc2)nn(-c2cnn(C)c2)c1=O [Compound 192] | < 100 | < 100 | – |
| C[C@@H](CO)NC(=O)c1cc(-c2cnc(-c3cccc(F)c3)nc2)nn(-c2cnn(C)c2)c1=O [Compound 193] | < 100 | < 100 | – |
| C[C@@H](CO)NC(=O)c1cc(-c2cnc(-c3ccccc3F)nc2)nn(-c2cnn(C)c2)c1=O [Compound 194] | < 100 | < 100 | – |
| C[C@@H](CO)NC(=O)c1cc(-c2ccc(-c3ccc(F)nc3)nc2)nn(-c2cnn(C)c2)c1=O [Compound 195] | < 100 | < 100 | – |
| C[C@@H](CO)NC(=O)c1cc(-c2ccc(C3CCOCC3)cc2)nn(-c2cnn(C)c2)c1=O [Compound 197] | 100 to 400 | 100 to 400 | – |
| C[C@@H](CO)NC(=O)c1cc(-c2ccc(C3CCCCC3)cc2)nn(-c2cnn(C)c2)c1=O [Compound 198] | < 100 | < 100 | – |
| C[C@@H](CO)NC(=O)c1cc(-c2cnc(-c3ccc(F)cc3)nc2)nc(-c2cnn(C)c2)n1 [Compound 199] | < 100 | < 100 | – |
| C[C@@H](CO)n1cnc2c(-c3cnn(C)c3)nc(-c3cnc(-c4ccc(F)cc4)nc3)cc2c1=O [Compound 200] | < 100 | < 100 | – |
| CCc1ccc(-c2cc(C(=O)N[C@@H](C)CO)c(=O)n(-c3cnn(C)c3)n2)cc1 [Compound 201] | < 100 | < 100 | – |
| CC(C)c1ccc(-c2cc(C(=O)N[C@@H](C)CO)c(=O)n(-c3cnn(C)c3)n2)cc1 [Compound 202] | < 100 | < 100 | – |
| C[C@@H](CO)NC(=O)c1cc(-c2ccc(C(C)(C)C)cc2)nn(-c2cnn(C)c2)c1=O [Compound 203] | < 100 | < 100 | – |
| CCc1ccc(-c2cc(C(=O)N[C@@H](C)COC)c(=O)n(-c3cnn(C)c3)n2)cc1 [Compound 204] | < 100 | 100 to 400 | – |
| COC[C@H](C)NC(=O)c1cc(-c2ccc(C(C)C)cc2)nn(-c2cnn(C)c2)c1=O [Compound 206] | < 100 | < 100 | – |
| C[C@@H](CO)NC(=O)c1cc(N2CCC(c3ccc(F)cc3)CC2)nn(-c2cnn(C)c2)c1=O [Compound 207] | 100 to 400 | > 400 | – |
| C[C@@H](CO)NC(=O)c1cc(N2CCN(c3ccc(F)cc3)CC2)nn(-c2cnn(C)c2)c1=O [Compound 208] | < 100 | < 100 | – |
| C[C@@H](CO)NC(=O)c1cc(-c2ccc(-c3ccc(F)cc3)nc2)nn(-c2cnn(C)c2)c1=O [example 184] | < 100 | < 100 | significantly reduced tumor volume |
